Experimental data published in publication PMC9564300, “Cytotoxic Mechanism of Momilactones A and B against Acute Promyelocytic Leukemia and Multiple Myeloma Cell Lines” (Cancers, 2022).
Where “and” joins values, the source holds several entries; their conditions need not be identical. Equal values may be shown once.

What was measured:
[1] = tested on: acute promyelocytic leukemia HL-60 cell line; experiment: Cell viability (MTT) assay on HL-60; type: cell-based; conditions: Homo sapiens; for IC50: HL-60, 48 h
Experimental: (§1) In this assay, culture media was prepared by adding fetal bovine serum (10%), L-glutamine (5 mM), penicillin (100 IU/mL), and streptomycin (100 µg/mL) to IMDM (Sigma-Aldrich, St. Louis, MO, USA). The cells (5 × 10^3 cells/well) were seeded into a 96-well plate filled with 100 µL of culture media and placed in a CO2 incubator at 37 °C. After 24 h, the cells were treated with MA, MB, and MAB with different concentrations (0.5, 1, 5, and 10 µM) for 48 h. Subsequently, 10 µL of the MTT solution (5 mg/mL, Sigma-Aldrich) was pipetted into each well. The cells were continuously incubated for 4 h. Finally, 100 µL of cell lysis buffer (10% SDS in 0.01 M HCl) was applied to dissolve the colored formazan crystals. Culture media instead of momilactones was used as the negative control. Meanwhile the drugs consisting of doxorubicin, all-trans retinoic acid (ATRA), the mixture of ATRA and arsenic trioxide (ATRA/ATO) (1:1, w/w), and bortezomib were tested as the standard inhibitors. The absorbance at 595 nm was scanned to determine the cell growth rate using a spectrophotometer (SpectraMAX M5, Molecular Devices, Sunnyvale, CA, USA). All tests were performed with three replications. The cytotoxic activity (% inhibition) of momilactones and/or inhibitors on the tested cell lines was as follows:Inhibition (%) = (ANC − AS)/ANC × 100(1) where ANC: absorbance of reaction with negative control, and AS: absorbance of reaction with momilactone and/or inhibitor.
(§2) Dose-responding curves and IC50 values (the required concentration for inhibiting 50% of cell viability) of momilactones and the standard inhibitors for cytotoxicity against tested cell lines were established. A lower IC50 indicates a stronger cytotoxic activity.

[2] = tested on: non-cancerous MeT-5A cell line; experiment: Cell viability (MTT) assay on MeT-5A; type: cell-based; conditions: Homo sapiens, 48 h
Experimental: as §1, §2

[3] = tested on: multiple myeloma U266 cell line; experiment: Cell viability (MTT) assay on U266; type: cell-based; conditions: Homo sapiens; for IC50: U-266, U266, 48 h
Experimental: as §1, §2

cyclin B1 = experiment: Western blotting in HL-60: cyclin B1; type: cell-based, human; conditions: HL-60, 5 µM, control 1.17
Experimental: (§3) The cells (5 × 10^5 cells/well) were cultured and treated in triplicate following the same methods as the apoptosis and cell cycle assays. The cell lysates were conducted by rinsing cells with PBS, followed by adding 2× loading buffer two times (4% SDS, 10% 2-mercaptoethanol, 20% glycerol, 0.004% bromophenol blue, 0.125 M Tris-HCl, pH 6.8). The extracted protein ([…]) was subjected to sodium dodecyl sulfate (SDS)-polyacrylamide gels, applying 10% acrylamide, and subsequently transferred to a polyvinylidene fluoride membrane (Takara Bio, Shiga, Japan) by electroblotting. The membrane was blocked using 3% skim milk in PBS-0.05% Tween 20 (PBS-T) at 25 °C for 1 h. The incubation with each antibody (2 µg/mL) against anti-rabbit total p-38/MAPK, phosphorylated p-38/MAPK, BCL-2, procaspase-3, cleaved caspase-3, CDK1/cdc2, cyclin B1, and GAPDH (BioLegend, San Diego, CA, USA) in blocking buffer was conducted overnight at 4 °C. The following step was performed by washing the membrane with PBS-T in triplicate. The collected membrane was incubated with a secondary antibody of horseradish peroxidase-labeled goat anti-rabbit IgG (20 ng/mL) (IBL, Gunma, Japan) at 37 °C for 1 h. […] The relative expression (RE) was calculated by normalizing the intensity of targeted proteins to the intensity of the housekeeping protein GAPDH.

[4] = tested on: cleaved caspase-3/procaspase-3; experiment: Western blotting in U266: cleaved caspase-3/procaspase-3; type: cell-based, human; conditions: U266, 5 µM
Experimental: as §3

BCL-2 [5] = experiment: Western blotting in U266: BCL-2; type: cell-based, human; conditions: U266, 5 µM
Experimental: as §3

BCL-2 [6] = experiment: Western blotting in HL-60: BCL-2; type: cell-based, human; conditions: HL-60, 5 µM
Experimental: as §3

[7] = tested on: non-cancerous MeT-5A cell line; experiment: Cell apoptosis (annexin V) assay on MeT-5A; type: cell-based, human; conditions: 5 µM
Experimental: (§4) The procedure was conducted in triplicate following Lam et al.. In brief, the cells (5 × 10^5 cells/well) were seeded into a 6-well plate filled with 1.5 mL of culture media and cultured in a CO2 incubator for 24 h with the same condition as mentioned in the MTT assay. The cells were then treated with momilactones at a concentration of 5 µM for 24 and 48 h. The non-treated cells were used as a control. Harvested cells were washed twice with cold phosphate-buffered saline (PBS). After that, the control and treated cells were incubated with annexin V-conjugated fluorescein isothiocyanate (FITC) (Biolegend, San Diego, CA, USA) and propidium iodide (PI) for 15 min at 25 °C. The obtained cells were dissolved in 450 µL of PBS. The solution was filtered by a nylon membrane to prevent cell clumping and kept on ice until analysis. The intensities of annexin V-FITC and PI and the percentages of apoptotic cells were instantly determined by a flow cytometer (BD, Franklin Lakes, NJ, USA).

[8] = tested on: multiple myeloma U266 cell line; experiment: Cell apoptosis (annexin V) assay on U266; type: cell-based, human; conditions: U266, 5 µM
Experimental: as §4

[9] = tested on: acute promyelocytic leukemia HL-60 cell line; experiment: Cell apoptosis (annexin V) assay on HL-60; type: cell-based, human; conditions: HL-60, 5 µM
Experimental: as §4

CDK1 = experiment: Western blotting in HL-60: CDK1; type: cell-based, human; conditions: HL-60, 5 µM, control 1.55
Experimental: as §3

[10] = tested on: phosphorylated p-38/total p-38; experiment: Western blotting in U266: phosphorylated p-38/total p-38; type: cell-based, human; conditions: U266, 5 µM, control 1.00
Experimental: as §3

[11] = tested on: cleaved caspase-3/procaspase-3; experiment: Western blotting in HL-60: cleaved caspase-3/procaspase-3; type: cell-based, human; conditions: HL-60, 5 µM, control 0.17
Experimental: as §3

[12] = tested on: acute promyelocytic leukemia HL-60 cell line; experiment: Cell cycle assay (PI, flow cytometry) on HL-60; type: cell-based, human; conditions: HL-60, 5 µM
Experimental: (§5) The cells (5 × 10^5 cells/well) were cultured and treated in triplicate following the same methods as the apoptosis assay. The FxCycle PI/RNase staining solution was applied according to the manufacturer’s instructions (Calbiochem, Darmstadt, Germany). The cell cycle distribution at each phase of G1, S, and G2 was determined based on the cell’s DNA content. The percentages of cells in different phases of the cell cycle were quantified by a flow cytometer (BD, Franklin Lakes, NJ, USA). In brief, the collected cells were washed with ice-cold PBS. Subsequently, ice-cold PBS in pure ethanol was added to disperse the cells. The obtained solution was stored at 4 °C for 24 h for fixing. For analysis, the cells were incubated with 10 mg/mL of RNase A (Sigma-Aldrich) for 5 min on ice. The following step was conducted by adding 1 mg/mL of PI (in PBS). After incubating for 10 min at room temperature, the cells were dissolved in 450 µL of PBS. The solution was then filtered using a nylon membrane to remove cell clumping before analysis. Subsequently, the flow cytometric measurement was immediately performed.

[13] = tested on: phosphorylated p-38/total p-38; experiment: Western blotting in HL-60: phosphorylated p-38/total p-38; type: cell-based, human; conditions: HL-60, 5 µM, control 0.48
Experimental: as §3

[14] = tested on: non-cancerous MeT-5A cell line; experiment: Cell cycle assay (PI, flow cytometry) on MeT-5A; type: cell-based, human; conditions: 5 µM, 48 h
Experimental: as §5

Structure (SMILES): CC1=C(/C=C/C(C)=C/C=C/C(C)=C/C(=O)O)C(C)(C)CCC1 [ATRA, all-trans retinoic acid, reference compound]
- IC50 [1]: 3.99 ± 0.16 µM

Structure (SMILES): COc1cccc2c1C(=O)c1c(O)c3c(c(O)c1C2=O)C[C@@](O)(C(=O)CO)C[C@@H]3O[C@H]1C[C@H](N)[C@H](O)[C@H](C)O1 [Doxorubicin, doxorubicin, reference compound]
- IC50 [1]: 5.22 ± 0.15 µM
- inhibition at 10 µM [2]: 49.2 ± 6.17%
- IC50 [3]: 240 ± 10 nM

Structure (SMILES): C=C[C@]1(C)CC[C@@H]2C(=C[C@H]3OC(=O)[C@@]4(C)C(=O)CC[C@@]2(C)[C@@H]34)C1 [MA, momilactone A]
- inhibition at 10 µM ([1]; HL-60, 10 µM, 48 h, read-out: HL-60 inhibition percentage at 10 µM): 30.2%
- inhibition at 10 µM [2]: 28.5 ± 2.93%
- inhibition at 10 µM ([3]; U-266, U266, 10 µM, 48 h, read-out: U266 inhibition percentage at 10 µM): 41%

Structure (SMILES): C=C[C@]1(C)CC[C@@H]2C(=C[C@H]3OC(=O)[C@]4(C)[C@H]3[C@]23CC[C@]4(O)OC3)C1 [MB, momilactone B]
- RE of cyclin B1 (cyclin B1; 24 h): 0.80
- RE of cyclin B1 (cyclin B1; 48 h): 0.69
- increase of cleaved caspase-3/procaspase-3 expression over the control ([4]; 24 h): 5.33 times
- increase of cleaved caspase-3/procaspase-3 expression over the control ([4]; 48 h): 8.83 times
- inhibition of BCL-2 expression compared to the control (BCL-2 [5]; 24 h): 2.37 times
- decrease of BCL-2 expression over the control (BCL-2 [5]; 48 h): 4.41 fold
- BCL-2 RE value, fold lower than the control (BCL-2 [6]; 24 h): 1.92 fold
- BCL-2 RE value, fold lower than the control (BCL-2 [6]; 48 h): 2.32 fold
- % apoptosis (FITC+) ([7]; 24 h): 2.9% and 2.87%
- FITC- cells ([7]; 24 h): 97.1%
- % apoptosis (FITC+) ([7]; 48 h): 10.3%
- FITC- cells ([7]; 48 h): 89.7%
- increase in cell apoptosis compared to the non-treated control ([7]; 48 h): 2.67 fold
- % apoptosis (FITC+) ([8]; 24 h): 16.9%
- FITC- cells ([8]; 24 h): 83.1%
- % apoptosis (FITC+) ([8]; 48 h): 18.0%
- FITC- cells ([8]; 48 h): 82.0%
- IC50 [1]: 4.49 ± 0.34 µM
- % apoptosis (FITC+) ([9]; 24 h): 1.1%
- FITC- cells ([9]; 24 h): 98.9%
- increase in apoptotic process over the control ([9]; 24 h): 1.30 fold
- % apoptosis (FITC+) ([9]; 48 h): 40.5%
- FITC- cells ([9]; 48 h): 59.5%
- RE of CDK1 (CDK1; 24 h): 1.10
- RE of CDK1 (CDK1; 48 h): 0.75
- RE of phosphorylated p-38/total p-38 ([10]; 24 h): 2.47
- RE of phosphorylated p-38/total p-38 ([10]; 48 h): 2.35
- RE of cleaved caspase-3/procaspase-3 ([11]; 24 h): 0.56
- RE of cleaved caspase-3/procaspase-3 ([11]; 48 h): 0.77
- cells in G2 phase ([12]; 24 h): 30.1%
- cells in G2 phase ([12]; 48 h): 29.2%
- inhibition at 10 µM [2]: 38 ± 2.29%
- relative expression (RE) of phosphorylated p-38/total p-38 ([13]; 24 h): 1.15
- relative expression (RE) of phosphorylated p-38/total p-38 ([13]; 48 h): 0.96
- IC50 [3]: 5090 ± 580 nM
- increase of cell percentage of sub-G1 compared to the untreated control [14]: 2.59 times

Structure (SMILES): CC(C)C[C@H](NC(=O)[C@H](Cc1ccccc1)NC(=O)c1cnccn1)B(O)O [bortezomib, reference compound]
- IC50 [3]: 8 nM
